Results: US12077503B2, “Substituted cyclic amides and their use as herbicides” (FMC CORPORATION, priority 2015, dated 2024)

How the values were obtained:
Type in all cases: in vivo
[1] = tested on: giant foxtail (Setaria faberi); experiment: Test G Post-Emergence Protocol; settings: Setaria faberi, post-emergence, 312 h, read-out: Foxtail, Giant damage rating
Method in brief: (§1)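 Values are percent visual injury at 13 days after treatment (0 none, 100 total). Treatment was a post-emergence spray at 15.625, 62.5 or 250 g/ha on 8-day-old pot plants kept at 24/16 °C.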

[2] = tested on: redroot pigweed (Amaranthus retroflexus); experiment: Test G Post-Emergence Protocol; settings: Amaranthus retroflexus, post-emergence, 312 h, read-out: Pigweed, Redroot damage rating
Method in brief: as §1

[3] = tested on: velvetleaf (Abutilon theophrasti); experiment: Test G Post-Emergence Protocol; settings: Abutilon theophrasti, post-emergence, 312 h, read-out: Velvetleaf damage rating
Method in brief: as §1

[4] = tested on: barnyardgrass (Echinochloa crus-galli); experiment: Test G Post-Emergence Protocol; settings: Echinochloa crus-galli, post-emergence, 312 h, read-out: Barnyardgrass damage rating
Method in brief: as §1

corn (Zea mays) [5] = experiment: Test G Post-Emergence Protocol; settings: Zea mays, post-emergence, 312 h, read-out: Corn damage rating
Method in brief: as §1

[6] = tested on: ivy-leaved morning glory (Ipomoea hederacea); experiment: Test G Post-Emergence Protocol; settings: Ipomoea, post-emergence, 312 h, read-out: Morningglory, Ivy-leaved damage rating
Method in brief: as §1

[7] = tested on: giant foxtail (Setaria faberi); experiment: Test G Pre-Emergence Protocol; settings: Setaria faberi, pre-emergence, 312 h, evaluated after 13 days
Method in brief: (§2)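 Under a 24/16° C day/night regime with 14 h light and 65% humidity, sown pots were sprayed after one day with compound (15.625, 62.5 or 250 g/ha; 50:50 acetone/water, 0.5% Tween 20). Damage was assessed visually 13 days later, 0 to 100.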

[8] = tested on: redroot pigweed (Amaranthus retroflexus); experiment: Test G Pre-Emergence Protocol; settings: Amaranthus retroflexus, pre-emergence, 312 h, evaluated after 13 days
Method in brief: as §2

[9] = tested on: velvetleaf (Abutilon theophrasti); experiment: Test G Pre-Emergence Protocol; settings: Abutilon theophrasti, pre-emergence, 312 h, evaluated after 13 days
Method in brief: as §2

[10] = tested on: barnyardgrass (Echinochloa crus-galli); experiment: Test G Pre-Emergence Protocol; settings: Echinochloa crus-galli, pre-emergence, 312 h, evaluated after 13 days
Method in brief: as §2

corn (Zea mays) [11] = experiment: Test G Pre-Emergence Protocol; settings: Zea mays, pre-emergence, 312 h, evaluated after 13 days
Method in brief: as §2

[12] = tested on: ivy-leaved morning glory (Ipomoea hederacea); experiment: Test G Pre-Emergence Protocol; settings: Ipomoea, pre-emergence, 312 h, evaluated after 13 days
Method in brief: as §2

[13] = 15.625 g ai/ha, evaluated after 13 days (100=total damage to plant; 0=no damage to plant)
[14] = 62.5 g ai/ha, evaluated after 13 days, 100=total damage to plant, 0=no damage to plant
[15] = 250 g ai/ha, evaluated after 13 days, 100=total damage to plant, 0=no damage to plant

SMILES: CCOc1cc(C2CN(C)C(=O)C2C(=O)Nc2cccc(F)c2F)cc(C(F)(F)F)c1 (stereo not drawn) [Compound 1696]
- pest or weed control at 15.625 g/ha [1, 13]: 70%
- pest or weed control at 62.5 g/ha [1, 14]: 80%
- pest or weed control at 250 g/ha [1, 15]: 80%
- pest or weed control at 15.625 g/ha [2, 13]: 70%
- pest or weed control at 62.5 g/ha [2, 14]: 50%
- pest or weed control at 250 g/ha [2, 15]: 60%
- pest or weed control at 15.625 g/ha [3, 13]: 0%
- pest or weed control at 62.5 g/ha [3, 14]: 0%
- pest or weed control at 250 g/ha [3, 15]: 10%
- pest or weed control at 15.625 g/ha [4, 13]: 40%
- pest or weed control at 62.5 g/ha [4, 14]: 70%
- pest or weed control at 250 g/ha [4, 15]: 80%
- plant injury at 15.625 g/ha (corn (Zea mays) [5]; [13]): 50%
- plant injury at 62.5 g/ha (corn (Zea mays) [5]; [14]): 70%
- plant injury at 250 g/ha (corn (Zea mays) [5]; [15]): 70%
- pest or weed control at 15.625 g/ha [6, 13]: 20%
- pest or weed control at 62.5 g/ha [6, 14]: 60%
- pest or weed control at 250 g/ha [6, 15]: 60%
- pest or weed control at 15.625 g/ha ([7]; 15.625 g ai/ha, read-out: Foxtail, Giant damage rating (100=total damage to plant; 0=no damage to plant)): 60%
- pest or weed control at 62.5 g/ha ([7]; 62.5 g ai/ha, 100=total damage to plant, 0=no damage to plant, read-out: Foxtail, Giant damage rating): 80%
- pest or weed control at 250 g/ha ([7]; 250 g ai/ha, read-out: Foxtail, Giant damage rating (100=total damage to plant; 0=no damage to plant)): 90%
- pest or weed control at 15.625 g/ha ([8]; 15.625 g ai/ha, read-out: Pigweed, Redroot damage rating (100=total damage to plant; 0=no damage to plant)): 20%
- pest or weed control at 62.5 g/ha ([8]; 62.5 g ai/ha, 100=total damage to plant, 0=no damage to plant, read-out: Pigweed, Redroot damage rating): 0%
- pest or weed control at 250 g/ha ([8]; 250 g ai/ha, read-out: Pigweed, Redroot damage rating (100=total damage to plant; 0=no damage to plant)): 20%
- pest or weed control at 15.625 g/ha ([9]; 15.625 g ai/ha, read-out: Velvetleaf damage rating (100=total damage to plant; 0=no damage to plant)): 10%
- pest or weed control at 62.5 g/ha ([9]; 62.5 g ai/ha, 100=total damage to plant, 0=no damage to plant, read-out: Velvetleaf damage rating): 0%
- pest or weed control at 250 g/ha ([9]; 250 g ai/ha, read-out: Velvetleaf damage rating (100=total damage to plant; 0=no damage to plant)): 0%
- pest or weed control at 15.625 g/ha ([10]; 15.625 g ai/ha, read-out: Barnyardgrass damage rating (100=total damage to plant; 0=no damage to plant)): 10%
- pest or weed control at 62.5 g/ha ([10]; 62.5 g ai/ha, 100=total damage to plant, 0=no damage to plant, read-out: Barnyardgrass damage rating): 70%
- pest or weed control at 250 g/ha ([10]; 250 g ai/ha, read-out: Barnyardgrass damage rating (100=total damage to plant; 0=no damage to plant)): 80%
- plant injury at 15.625 g/ha (corn (Zea mays) [11]; 15.625 g ai/ha, read-out: Corn damage rating (100=total damage to plant; 0=no damage to plant)): 0%
- plant injury at 62.5 g/ha (corn (Zea mays) [11]; 62.5 g ai/ha, 100=total damage to plant, 0=no damage to plant, read-out: Corn damage rating): 40%
- plant injury at 250 g/ha (corn (Zea mays) [11]; 250 g ai/ha, read-out: Corn damage rating (100=total damage to plant; 0=no damage to plant)): 50%
- pest or weed control at 15.625 g/ha ([12]; 15.625 g ai/ha, read-out: Morningglory, Ivy-leaved damage rating (100=total damage to plant; 0=no damage to plant)): 10%
- pest or weed control at 62.5 g/ha ([12]; 62.5 g ai/ha, 100=total damage to plant, 0=no damage to plant, read-out: Morningglory, Ivy-leaved damage rating): 10%
- pest or weed control at 250 g/ha ([12]; 250 g ai/ha, read-out: Morningglory, Ivy-leaved damage rating (100=total damage to plant; 0=no damage to plant)): 20%
